Experimental data from ChEMBL document CHEMBL3045426, “Synthesis, Antiviral and Antibacterial Activities of Isatin Mannich Bases” (Med Chem Res, 2005).
Values after ≈ are worked out from the molar mass of the structure shown.

What was measured:
[1] = Cytotoxicity against Homo sapiens (human) HuH7 cells assessed as cell growth at 50 ug/ml after 3 days by Neutral red assay; format: cell-based, Huh-7; details: read-out: Activity
Vibrio fluvialis = test: Antimicrobial activity against Vibrio fluvialis after 18 to 20 hr by agar dilution method; format: functional
[2] = test system: Human immunodeficiency virus 1; test: Antiviral activity against Human immunodeficiency virus 1 IIIB infected MT4 cells assessed as protection against viral infection after 5 days by MTT assay; format: functional; parameters: concentration or dose not given beside the values
[3] = test system: Human immunodeficiency virus 1; test: Antiviral activity against Human immunodeficiency virus 1 IIIB infected MT4 cells assessed as inhibition of virus-induced cytopathicity after 5 days by MTT assay; format: functional, organism-based; details: MT4, 120 h
[4] = test system: Mycobacterium tuberculosis; test: Antimycobacterial activity against Mycobacterium tuberculosis H37Rv ATCC 27294 at 6.25 ug/ml by MABA; format: functional
Salmonella paratyphi = test: Antimicrobial activity against Salmonella enterica subsp. enterica serovar Paratyphi A after 18 to 20 hr by agar dilution method; format: functional
Hepatitis C virus = test: Antiviral activity against Hepatitis C virus BM4-5 infected in Huh7 cells assessed as inhibition of viral RNA replication by phosphor screening method; format: functional, Hepacivirus hominis, Huh-7
Edwardsiella tarda = test: Antimicrobial activity against Edwardsiella tarda after 18 to 20 hr by agar dilution method; format: functional
Pseudomonas aeruginosa = test: Antimicrobial activity against Pseudomonas aeruginosa after 18 to 20 hr by agar dilution method; format: functional
[5] = Selectivity index, ratio of CC50 for human MT4 cells to EC50 for HIV1 3B infected in MT4 cells; format: toxicity, cell-based; details: read-out: Ratio CC50/EC50
Klebsiella pneumoniae [6] = test: Antimicrobial activity against Klebsiella pneumoniae subsp. ozaenae after 18 to 20 hr by agar dilution method; format: functional
Vibrio cholerae [7] = test: Antimicrobial activity against Vibrio cholerae 0139 after 18 to 20 hr by agar dilution method; format: functional; details: 139
Proteus mirabilis = test: Antimicrobial activity against Proteus mirabilis after 18 to 20 hr by agar dilution method; format: functional
Salmonella enteritidis = test: Antimicrobial activity against Salmonella enterica subsp. enterica serovar Enteritidis after 18 to 20 hr by agar dilution method; format: functional
[8] = Cytotoxicity against Homo sapiens (human) MT4 cells after 5 days by MTT assay; format: cell-based
Salmonella typhi = test: Antimicrobial activity against Salmonella enterica subsp. enterica serovar Typhi after 18 to 20 hr by agar dilution method; format: functional
Citrobacter freundii = test: Antimicrobial activity against Citrobacter freundii after 18 to 20 hr by agar dilution method; format: functional
[9] = Cytotoxicity against Homo sapiens (human) CEM cells after 5 days by MTT assay; format: cell-based; details: CEM cells (CCRF-CEM)
Klebsiella pneumoniae [10] = test: Antimicrobial activity against Klebsiella pneumoniae after 18 to 20 hr by agar dilution method; format: functional
Shigella boydii = test: Antimicrobial activity against Shigella boydii after 18 to 20 hr by agar dilution method; format: functional
Vibrio cholerae [11] = test: Antimicrobial activity against Vibrio cholerae 01 after 18 to 20 hr by agar dilution method; format: functional; details: 1
[12] = test system: Human immunodeficiency virus 1; test: Antiviral activity against Human immunodeficiency virus 1 IIIB infected CEM cells assessed as inhibition of virus-induced cytopathicity after 6 days by XTT assay; format: functional, organism-based; details: CCRF-CEM, 144 h
[13] = test system: Human immunodeficiency virus 1; test: Antiviral activity against Human immunodeficiency virus 1 IIIB infected CEM cells assessed as protection against viral infection after 6 days by XTT assay; format: functional, CCRF-CEM; parameters: concentration or dose not given beside the values
Enterobacter = test: Antimicrobial activity against Enterobacter after 18 to 20 hr by agar dilution method; format: functional
Vibrio parahaemolyticus = test: Antimicrobial activity against Vibrio parahaemolyticus after 18 to 20 hr by agar dilution method; format: functional
Plesiomonas = test: Antimicrobial activity against Plesiomonas after 18 to 20 hr by agar dilution method; format: functional
Salmonella typhimurium = test: Antimicrobial activity against Salmonella enterica subsp. enterica serovar Typhimurium after 18 to 20 hr by agar dilution method; format: functional
Escherichia coli = test: Antimicrobial activity against Escherichia coli NCTC 10418 after 18 to 20 hr by agar dilution method; format: functional
Staphylococcus aureus = test: Antimicrobial activity against Staphylococcus aureus after 18 to 20 hr by agar dilution method; format: functional
Morganella morganii = test: Antimicrobial activity against Morganella morganii after 18 to 20 hr by agar dilution method; format: functional
Priestia megaterium = test: Antimicrobial activity against Bacillus megaterium after 18 to 20 hr by agar dilution method; format: functional
Proteus vulgaris = test: Antimicrobial activity against Proteus vulgaris after 18 to 20 hr by agar dilution method; format: functional
Vibrio mimicus = test: Antimicrobial activity against Vibrio mimicus after 18 to 20 hr by agar dilution method; format: functional
Shigella sonnei = test: Antimicrobial activity against Shigella sonnei after 18 to 20 hr by agar dilution method; format: functional

Compound	viability at 72 h, 50 ug/ml [1] [%]	MIC (Vibrio fluvialis) [µg/mL]	Activity [2] [%]	EC50 [3] [µg/mL]	inhibition at 6.25 µg/mL [4] [%]	MIC (Salmonella paratyphi) [µg/mL]	inhibition (INH) (Hepatitis C virus) [%]	MIC (Edwardsiella tarda) [µg/mL]	MIC (Pseudomonas aeruginosa) [µg/mL]	selectivity ratio [5]	MIC (Klebsiella pneumoniae [6]) [µg/mL]	MIC (Vibrio cholerae [7]) [µg/mL]	MIC (Proteus mirabilis) [µg/mL]	MIC (Salmonella enteritidis) [µg/mL]	CC50 at 120 h [8] [µg/mL]	MIC (Salmonella typhi) [µg/mL]	MIC (Citrobacter freundii) [µg/mL]	CC50 at 120 h [9] [µg/mL]	MIC (Klebsiella pneumoniae [10]) [µg/mL]	MIC (Shigella boydii) [µg/mL]	further results
COc1cc(Cc2cnc(/N=C3\C(=O)N(CN4CCCCC4C)c4ccc(Cl)cc43)nc2N)cc(OC)c1OC (stereo not drawn)	112	1250 (≈ 2210 µM)	62.6	32.6 (≈ 57.7 µM)	10	625 (≈ 1110 µM)	89	1250 (≈ 2210 µM)	1250 (≈ 2210 µM)	3	1250 (≈ 2210 µM)	625 (≈ 1110 µM)	625 (≈ 1110 µM)	625 (≈ 1110 µM)	97.3 (≈ 172 µM)	1250 (≈ 2210 µM)	625 (≈ 1110 µM)	> 83.8	1250 (≈ 2210 µM)	4.88 (≈ 8.64 µM)	MIC (Vibrio cholerae [11]): 4.88 µg/mL (≈ 8.64 µM); EC50 [12]: > 83.8 µg/mL; Activity [13]: 20.7%; MIC (Enterobacter): 625 µg/mL (≈ 1110 µM); MIC (Vibrio parahaemolyticus): 1.22 µg/mL (≈ 2.16 µM); MIC (Plesiomonas): 19.5 µg/mL (≈ 34.6 µM); MIC (Salmonella typhimurium): 1250 µg/mL (≈ 2210 µM); MIC (Escherichia coli): 625 µg/mL (≈ 1110 µM); MIC (Staphylococcus aureus): 312 µg/mL (≈ 553 µM); MIC (Morganella morganii): 1250 µg/mL (≈ 2210 µM); MIC (Priestia megaterium): 625 µg/mL (≈ 1110 µM); MIC (Proteus vulgaris): 625 µg/mL (≈ 1110 µM); MIC (Vibrio mimicus): 0.61 µg/mL (≈ 1.08 µM); MIC (Shigella sonnei): 1250 µg/mL (≈ 2210 µM)
COc1cc(Cc2cnc(/N=C3\C(=O)N(CN4CCN(c5ccc(F)cc5)CC4)c4ccc(Cl)cc43)nc2N)cc(OC)c1OC	64	1250 (≈ 1930 µM)	59.6	56.1 (≈ 86.8 µM)	35	312 (≈ 484 µM)	80	625 (≈ 967 µM)	1250 (≈ 1930 µM)	3	625 (≈ 967 µM)	625 (≈ 967 µM)	625 (≈ 967 µM)	625 (≈ 967 µM)	65.6 (≈ 102 µM)	625 (≈ 967 µM)	625 (≈ 967 µM)	71 (≈ 110 µM)	1250 (≈ 1930 µM)	19.5 (≈ 30.2 µM)	MIC (Vibrio cholerae [11]): 4.88 µg/mL (≈ 7.55 µM); EC50 [12]: > 71 µg/mL; Activity [13]: 22.98%; MIC (Enterobacter): 625 µg/mL (≈ 967 µM); MIC (Vibrio parahaemolyticus): 39.1 µg/mL (≈ 60.5 µM); MIC (Plesiomonas): 9.76 µg/mL (≈ 15.1 µM); MIC (Salmonella typhimurium): 625 µg/mL (≈ 967 µM); MIC (Escherichia coli): 625 µg/mL (≈ 967 µM); MIC (Staphylococcus aureus): 625 µg/mL (≈ 967 µM); MIC (Morganella morganii): 625 µg/mL (≈ 967 µM); MIC (Priestia megaterium): 625 µg/mL (≈ 967 µM); MIC (Proteus vulgaris): 625 µg/mL (≈ 967 µM); MIC (Vibrio mimicus): 4.88 µg/mL (≈ 7.55 µM); MIC (Shigella sonnei): 1250 µg/mL (≈ 1930 µM)
